Test results as given in the NIST ThermoML archive (doi:10.1021/je020154p).
Numbers after ± are expanded uncertainties.

Conditions: Liquid

Compound	vapor or sublimation pressure (268.15 K) [kPa]	vapor or sublimation pressure (278.15 K) [kPa]	vapor or sublimation pressure (283.15 K) [kPa]	vapor or sublimation pressure (288.15 K) [kPa]	vapor or sublimation pressure (298.15 K) [kPa]	vapor or sublimation pressure (308.15 K) [kPa]	vapor or sublimation pressure (318.15 K) [kPa]
CCC [propane]	407.9 ± 1.5	549.4 ± 1.8	636.4 ± 2	735 ± 2.2	954.8 ± 2.7	1213 ± 3.3	1530.8 ± 4.1
FCF [difluoromethane]	695.4 ± 2.1	952 ± 2.6	1102.2 ± 3	1281.2 ± 3.4	1685.6 ± 4.5	2185.2 ± 5.7	2794.8 ± 7.2
